Test results as given in patent publication EP0382538A2, “A process for the preparation of cysteine-rich polypeptides, including echistatin” (MERCK & CO. INC., priority 1989, dated 1990).

How the values were obtained:
[1] = tested on: HUMAN PLATELET AGGREGATION; assay: Platelet aggregation assay (ADP-initiated, fibrinogen-dependent, Chronolog aggregometer); type: cell-based; conditions: inhibition of rate of human platelet aggregation by 50%; washed platelets 2 x 10⁸/ml, fibrinogen 100 µg/mL, Ca²⁺ 1 mM, 10 µM ADP, 37°C; platelets from 2-4 donors, duplicate; read-out: IC₅₀(µM) (95% CONFIDENCE LIMITS)
Method: Platelet aggregation was measured at 37°C in a Chronolog aggregometer. The reaction mixture contained washed platelets (2 x 10⁸/ml), fibrinogen (100 µg/mL), Ca²⁺ (1 mM), and the platelet aggregation inhibitor fraction to be tested. The aggregation was initiated by adding 10 µM ADP 1 min after the other components had been added. The reaction was allowed to proceed for at least 2 min. The extent of inhibition of aggregation was expressed as the percentage of the rate of aggregation observed in the absence of inhibitor. […]
The concentration of peptide necessary to inhibit the rate of human platelet aggregation by 50% (IC₅₀) was determined using platelets from 2-4 donors. Determinations were performed in duplicate for each donor.

platelet aggregation = assay: Platelet aggregation initiated by other agonists; type: cell-based; conditions: aggregation initiated by thrombin, epinephrin, collagen, or platelet activating factor
[2] = Preliminary in vivo antithrombotic studies

In the case of Echistatin [Synthetic Echistatin], the IC50 [1] is reported as 0.033 µM, the “prevention of platelet aggregation” value (platelet aggregation) is reported as “prevents aggregation” and the “antithrombotic effect in vivo” value [2] is reported as “very effective antithrombotic agent”.
